According to patent publication US20160120858A1 (ACADEMIA SINICA, priority 2014, published 2016):
“Also recorded” adds a separate entry of the source.

Legend:
NMDAR [1] = assay: Simultaneous NMDA- and AMPA-eEPSCs at −40 mV, patch-clamp, hippocampal slices; assay type: cell-based, mouse; conditions: for Effect on clioquinol-dependent increase in NMDA/AMPA ratio at −40 mV: WT and KO
Procedure: (§1) For electrophysiological experiments, sagittal hippocampal slices (400 uM thick for extracellular, 300 uM thick for intracellular recordings) of Shank2^−/− mice (or ZnT3^−/− mice) and their wild-type littermates were prepared using a vibratome (Leica VT1200) in ice-cold dissection buffer containing (in mM) 212 sucrose, 25 NaHCO3, 5 KCl, 1.25 NaH2PO4, 0.5 CaCl2, 3.5 MgSO4, 10 D-glucose, 1.25 L-ascorbic acid, and 2 Na-pyruvate bubbled with 95% 02/5% CO2. CA3 was removed to prevent epileptiform activity. Slices were restored for 1 hour in 32° C. in a normal artificial CSF (ACSF) (In units of mM: 124 NaCl, 2.5 kCl, 1 NaH2PO4, 25 NaHCO3, 10 glucose, 2 CaC12, 2 Mg504 oxidized by 95% 02/5% CO2) For the recording, a single slice was moved to and maintained in submerged-type chamber at 28° C., continuously perfused with ACSF (2 mL/minute) saturated with 95% 02/5% CO2. Stimulation and recording pipettes were pulled from borosilicate glass capillaries (Harvard Apparatus) using a micropipette electrode puller (Narishege).
Whole-cell patch-clamp recordings of hippocampal CA1 pyramidal neurons were also made using a MultiClamp 700B amplifier (Molecular Devices) and Digidata 1440A (Molecular Devices). During whole-cell patch-clamp recordings, series resistance was monitored each sweep by measuring the peak amplitude of the capacitance currents in response to short hyperpolarizing step pulse (5 mV, 40 ms); only cells with a change in <25% were included in the analysis. For NMDA (N-Methyl-D-aspartate)/AMPA (alpha-amino-3-hydroxy-5-methylisoxazole-4-propionic acid) ratio experiments, mouse hippocampal slices at the age of postnatal day 17 to 25 were used. The recording pipettes (2.5 to 3.5 MΩ) were filled with an internal solution containing the following (in mM): 100 CsMeSO4, 10 TEA-Cl, 8 NaCl, 10 HEPES, 5 QX-314-C1, 2 Mg-ATP, 0.3 Na-GTP, 10 EGTA, with pH 7.25, 295 mOsm). CA1 pyramidal neurons were voltage-clamped at −70 mV, and EPSPs were evoked at every 15 sec. AMPAR-mediatedEPSCs were recorded at −70 mV, and 30 consecutive responses were recorded after stable baseline. After recording AMPAR-mediated EPSPs, holding potential was changed to +40 mV to record NMDA receptor-mediated EPSPs. NMDA component was measured at 60 ms after the stimulation. The NMDA/AMPA ratio was determined by dividing the mean value of 30 NMDA components of EPSPs by the mean value of 30 AMPAR-mediated EPSC peak amplitudes. […] For measuring AMPAR-mediated and NMDAR-mediated EPSCs together upon CQ treatment, pyramidal neurons were voltage-clamped at −40 mV, and EPSCs were evoked at every 15 sec. AMPAR-mediated EPSC was determined as a peak amplitude of EPSC, and NMDAR-mediated EPSC as a component at 60 ms after stimulation. NMDA/AMPA ratio at −40 mV was calculated by using both values, and monitored during the experimental process. […] Picrotoxin (100 uM) was always added to ACSF to block GABAA receptor-mediated currents.

NMDAR [2] = assay: NMDA-fEPSP extracellular recordings, hippocampal slices; assay type: cell-based, mouse; conditions: for Effect on clioquinol-dependent increase in NMDAR activity (NMDA-fEPSPs): applied to hippocampal slices before clioquinol treatment
Procedure: as §1
For extracellular recordings, mouse hippocampal slices at the age of postnatal day 21 to 35 were used. Field excitatory postsynaptic potentials (fEPSPs) were recorded in the stratum radiatum of the hippocampal CA1 region using pipettes filled with ACSF (1 MΩ). fEPSP was amplified (Multiclamp 700B, Molecular Devices), and digitized (Digidata 1440A, Molecular
Devices) for measurements. The Schaffer collateral pathway was stimulated every 20 seconds with pipettes filled with ACSF (0.3 to 0.5 MΩ). The stimulation intensity was adjusted to yield a half-maximal response, and three successive responses were averaged and expressed relative to the normalized baseline. To induce LTP, high frequency stimulation (100 Hz, 1 s) was applied after a stable baseline was acquired. […] To isolate NMDAR-mediated fEPSPs, ACSF containing 2 mM calcium, 0.1 mM magnesium, and 6,7-dinitroquinoxaline-2,3-dione (10 uM, DNQX, Tocris), which inhibits AMPAR-mediated EPSPs, were used.

Tbr1^+/− mice = conditions: reported by Huang et al. 2014; cited from earlier work

NC(CCCP(=O)(O)O)C(=O)O (stereo not drawn) [AP5]
NMDA-eEPSCs at −40 mV (NMDAR [1]; D-AP5 50 uM, 10 minutes, after CQ): significantly reduced

O=C([O-])CN(CCN(CC(=O)[O-])CC(=O)[O-])CC(=O)[O-].[Ca+2].[Na+].[Na+] [Ca-EDTA]
NMDAR function (NMDA-fEPSPs), substance alone (NMDAR [2]; Ca-EDTA 2 mM, during and after the treatment, WT and KO): did not affect NMDA-fEPSP; also recorded: has no effect on NMDAR function
Effect on clioquinol-dependent increase in NMDAR activity (NMDA-fEPSPs) (NMDAR [2]): eliminated the clioquinol-dependent increase in NMDAR activity

N[C@@H]1CONC1=O [D-cycloserine]
Reduction in social interaction (Tbr1^+/− mice): normalized

CC(C)(C)n1nc(-c2ccc(Cl)cc2)c2c(N)ncnc21 [PP2]
Effect on clioquinol-dependent increase in NMDAR activity (NMDA-fEPSPs) (NMDAR [2]): removed clioquinol activation of NMDAR

Nc1ncnc2c1cnn2-c1ccccc1 [PP3]
Effect on clioquinol-dependent increase in NMDAR activity (NMDA-fEPSPs) (NMDAR [2]): failed to block the NMDAR activation

CN(C)S(=O)(=O)c1ccc2c(c1)/C(=C/c1cc3c([nH]1)CCCC3)C(=O)N2 [SU6656]
Effect on clioquinol-dependent increase in NMDAR activity (NMDA-fEPSPs) (NMDAR [2]): removed clioquinol activation of NMDAR

O=C(NN=C1CCCCC1)C(=O)NN=C1CCCCC1 [cuprizone]
Effect on clioquinol-dependent increase in NMDAR activity (NMDA-fEPSPs) (NMDAR [2]): did not inhibit the clioquinol-induced increase in NMDAR activity

Src (40-58): Src-inhibitory peptide with a sequence corresponding to Src amino acid residues 40-58 (KPASADGHRGPSAAFAPAA; UniProt P12931 40-58, looked up, fragment)
Effect on clioquinol-dependent increase in NMDAR activity (NMDA-eEPSCs) (NMDAR [1]; peptide in the patch pipette, 0.03 mg/mL, Shank2^−/− and wild-type synapses): prevented clioquinol from increasing NMDAR activity
Effect on clioquinol-dependent increase in NMDA/AMPA ratio at −40 mV (NMDAR [1]; peptide in the patch pipette, 0.03 mg/mL): blocks CQ-dependent NMDAR activation
Effect on clioquinol-dependent increase in NMDA/AMPA ratio at −40 mV (NMDAR [1]; peptide in the patch pipette, 0.03 mg/mL, listed as Src-inhibitory peptide): blocked
AMPAR function (AMPA-eEPSCs) (NMDAR [1]; peptide in the patch pipette, wild-type and Shank2^−/− synapses): unaffected
